Experimental data reported in patent US20240409585A1, “MACROCYCLIC IMMUNOMODULATORS” (priority 2021, published 2024).
Bridge positions count the residues as written; N and C are the ends. Square brackets hold non-standard residues; d marks the D form. Peptide text beside a SMILES is read from it. * marks the point of attachment. ξ: configuration not given here. Phe(4-CONH2) = NC(=O)c1ccc(C[C@H](N)C(=O)O)cc1; Phe(4-COOH) = N[C@@H](Cc1ccc(C(=O)O)cc1)C(=O)O; Bip = N[C@@H](Cc1ccc(-c2ccccc2)cc1)C(=O)O; Phe(3-Me) = Cc1cccc(C[C@H](N)C(=O)O)c1; Val(3-OH) = CC(C)(O)[C@H](N)C(=O)O; 4Pal = N[C@@H](Cc1ccncc1)C(=O)O; 3Thi = N[C@@H](Cc1ccsc1)C(=O)O; Cha = N[C@@H](CC1CCCCC1)C(=O)O; Ile(3ξ) = CCC(C)[C@H](N)C(=O)O; Thr(3ξ) = CC(O)[C@H](N)C(=O)O; Carboxymethyl = O=C(O)C*; NMeA = CN[C@@H](C)C(=O)O; Orn = NCCC[C@H](N)C(=O)O; Dab = NCC[C@H](N)C(=O)O

target: T1, PE-labeled human PD-L1-Ig binding to Jurkat cell line over-expressing human PD-1 (Jurkat-PD-1) (Homo sapiens, UniProt Q15116); test: Jurkat-PD-1 Cell Binding High-Content Screening Assay (CBA): Method 1; conditions: Jurkat-hPD-1 cells, PE-labeled PD-L1-Ig 20 nM final; read-out: Jurkat HPDL1 PD1 IC50 (uM) (Method 1)
T1 construct: expressed in transfected cells; host or cells: Jurkat
T1 sequence (Q15116 25-288): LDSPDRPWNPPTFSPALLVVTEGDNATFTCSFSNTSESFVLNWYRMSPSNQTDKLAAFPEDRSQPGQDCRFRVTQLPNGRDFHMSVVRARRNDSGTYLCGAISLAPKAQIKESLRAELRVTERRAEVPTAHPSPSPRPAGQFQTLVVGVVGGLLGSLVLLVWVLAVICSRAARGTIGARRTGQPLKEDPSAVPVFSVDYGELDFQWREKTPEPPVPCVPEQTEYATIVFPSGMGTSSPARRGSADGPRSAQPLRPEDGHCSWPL

| SMILES | IC50 |
| --- | --- |
| Cc1cccc(C[C@@H]2NC(=O)[C@H](CC(=O)O)NC(=O)[C@H](Cc3ccc(C(=O)O)cc3)NC(=O)[C@H](Cc3ccsc3)NC(=O)CSC[C@@H](C(=O)N[C@@H](CCN)C(N)=O)NC(=O)[C@H](CO)NC(=O)[C@H](C(C)(C)O)NC(=O)[C@H](CC3CCCCC3)NC(=O)[C@H](CCN)NC(=O)[C@@H](CC(C)C)NC(=O)[C@H](C)N(C)C(=O)[C@H](Cc3ccc(OCC(=O)O)cc3)NC(=O)[C@H](Cc3ccc(-c4ccccc4)cc3)NC(=O)[C@H](Cc3ccc(OCC(=O)O)cc3)NC2=O)c1 [Compound 2133] ({CH2CO}-[3Thi][Phe(4-COOH)]D[Phe(3-Me)]Y(Carboxymethyl)[Bip]Y(Carboxymethyl)[NMeA][dL][Dab][Cha][Val(3-OH)]SC[Dab]-NH2; thioether N-14) | 0.01 µM |
| Cc1cccc(C[C@@H]2NC(=O)[C@H](CC(=O)O)NC(=O)[C@H](Cc3ccc(C(N)=O)cc3)NC(=O)[C@H](Cc3ccncc3)NC(=O)CSC[C@@H](C(=O)N[C@@H](CCN)C(N)=O)NC(=O)[C@H](CO)NC(=O)[C@H](C(C)(C)O)NC(=O)[C@H](CC3CCCCC3)NC(=O)[C@H](CCN)NC(=O)[C@@H](CC(C)C)NC(=O)[C@H](C)N(C)C(=O)[C@H](Cc3ccc(OCC(=O)O)cc3)NC(=O)[C@H](Cc3ccc(-c4ccccc4)cc3)NC(=O)[C@H](Cc3ccc(OCC(=O)O)cc3)NC2=O)c1 [Compound 2138] ({CH2CO}-[4Pal][Phe(4-CONH2)]D[Phe(3-Me)]Y(Carboxymethyl)[Bip]Y(Carboxymethyl)[NMeA][dL][Dab][Cha][Val(3-OH)]SC[Dab]-NH2; thioether N-14) | 0.03 µM |
| Cc1cccc(C[C@@H]2NC(=O)[C@H](CC(=O)O)NC(=O)[C@H](Cc3ccc(OCC(=O)O)cc3)NC(=O)[C@H](Cc3ccncc3)NC(=O)CSC[C@@H](C(=O)N[C@H](CC(N)=O)C(N)=O)NC(=O)[C@H](CO)NC(=O)[C@H](C(C)(C)O)NC(=O)[C@H](CC3CCCCC3)NC(=O)[C@H](CCN)NC(=O)[C@@H](CC(C)C)NC(=O)[C@H](C)N(C)C(=O)[C@H](Cc3ccc(O)cc3)NC(=O)[C@H](Cc3ccc(-c4ccccc4)cc3)NC(=O)[C@H](Cc3ccc(O)cc3)NC2=O)c1 [Compound 2140] ({CH2CO}-[4Pal]Y(Carboxymethyl)D[Phe(3-Me)]Y[Bip]Y[NMeA][dL][Dab][Cha][Val(3-OH)]SC[dN]-NH2; thioether N-14) | 0.1 µM |
| CCC(C)[C@@H]1NC(=O)[C@H](Cc2ccc(-c3ccccc3)cc2)NC(=O)[C@H](C(C)C)NC(=O)[C@H](Cc2c[nH]c3ccccc23)NC(=O)[C@H](CC(=O)O)NC(=O)[C@H](Cc2ccc(OCC(=O)O)cc2)NC(=O)[C@H](C(C)O)NC(=O)CSC[C@@H](C(=O)N[C@H](CC(N)=O)C(N)=O)NC(=O)[C@H](CO)NC(=O)[C@H](C(C)(C)O)NC(=O)[C@H](CC2CCCCC2)NC(=O)[C@H](CCN)NC(=O)[C@@H](CC(C)C)NC(=O)[C@H](C)N(C)C1=O (stereo partly drawn) [Compound 2141] ({CH2CO}-[Thr(3ξ)]Y(Carboxymethyl)DWV[Bip][Ile(3ξ)][NMeA][dL][Dab][Cha][Val(3-OH)]SC[dN]-NH2; thioether N-14) | 0.02 µM |
| Cc1cccc(C[C@@H]2NC(=O)[C@H](CC(=O)O)NC(=O)[C@H](Cc3ccc(OCC(=O)O)cc3)NC(=O)[C@H](C(C)O)NC(=O)CSC[C@@H](C(=O)N[C@H](CC(N)=O)C(N)=O)NC(=O)[C@H](CO)NC(=O)[C@H](C(C)(C)O)NC(=O)[C@H](CC3CCCCC3)NC(=O)[C@H](CCN)NC(=O)[C@@H](CC(C)C)NC(=O)[C@H](C)N(C)C(=O)[C@H](Cc3ccc(O)cc3)NC(=O)[C@H](Cc3ccc(-c4ccccc4)cc3)NC(=O)[C@H](Cc3ccc(O)cc3)NC2=O)c1 (stereo partly drawn) [Compound 2142] ({CH2CO}-[Thr(3ξ)]Y(Carboxymethyl)D[Phe(3-Me)]Y[Bip]Y[NMeA][dL][Dab][Cha][Val(3-OH)]SC[dN]-NH2; thioether N-14) | 0.18 µM |
| CCC(C)[C@@H]1NC(=O)[C@H](Cc2ccc(-c3ccccc3)cc2)NC(=O)[C@H](C(C)C)NC(=O)[C@H](Cc2cccc(C)c2)NC(=O)[C@H](CC(=O)O)NC(=O)[C@H](Cc2ccc(OCC(=O)O)cc2)NC(=O)[C@H](Cc2ccncc2)NC(=O)CSC[C@@H](C(=O)N[C@@H](CCCN)C(N)=O)NC(=O)[C@H](C(C)O)NC(=O)[C@H](C(C)(C)O)NC(=O)[C@H](CC2CCCCC2)NC(=O)[C@H](CCN)NC(=O)[C@@H](CC(C)C)NC(=O)[C@H](C)N(C)C1=O (stereo partly drawn) [Compound 2145] ({CH2CO}-[4Pal]Y(Carboxymethyl)D[Phe(3-Me)]V[Bip][Ile(3ξ)][NMeA][dL][Dab][Cha][Val(3-OH)][Thr(3ξ)]C[Orn]-NH2; thioether N-14) | 0.01 µM |
| Cc1cccc(C[C@@H]2NC(=O)[C@H](CC(=O)O)NC(=O)[C@H](Cc3ccc(OCC(=O)O)cc3)NC(=O)[C@H](Cc3ccncc3)NC(=O)CSC[C@@H](C(=O)N[C@@H](CCN)C(N)=O)NC(=O)[C@H](C(C)O)NC(=O)[C@H](C(C)(C)O)NC(=O)[C@H](CC3CCCCC3)NC(=O)[C@H](CCN)NC(=O)[C@@H](CC(C)C)NC(=O)[C@H](C)N(C)C(=O)[C@H](Cc3ccc(OCC(=O)O)cc3)NC(=O)[C@H](Cc3ccc(-c4ccccc4)cc3)NC(=O)[C@H](Cc3ccc(C(=O)O)cc3)NC2=O)c1 (stereo partly drawn) [Compound 2146] ({CH2CO}-[4Pal]Y(Carboxymethyl)D[Phe(3-Me)][Phe(4-COOH)][Bip]Y(Carboxymethyl)[NMeA][dL][Dab][Cha][Val(3-OH)][Thr(3ξ)]C[Dab]-NH2; thioether N-14) | 0.01 µM |
| CCC(C)[C@@H]1NC(=O)[C@H](Cc2ccc(-c3ccccc3)cc2)NC(=O)[C@H](C(C)C)NC(=O)[C@H](Cc2cccc(C)c2)NC(=O)[C@H](CC(=O)O)NC(=O)[C@H](Cc2ccc(OCC(=O)O)cc2)NC(=O)[C@H](C(C)O)NC(=O)CSC[C@@H](C(=O)N[C@@H](CCCN)C(N)=O)NC(=O)[C@H](C(C)O)NC(=O)[C@H](C(C)(C)O)NC(=O)[C@H](CC2CCCCC2)NC(=O)[C@H](CCN)NC(=O)[C@@H](CC(C)C)NC(=O)[C@H](C)N(C)C1=O (stereo partly drawn) [Compound 2147] ({CH2CO}-[Thr(3ξ)]Y(Carboxymethyl)D[Phe(3-Me)]V[Bip][Ile(3ξ)][NMeA][dL][Dab][Cha][Val(3-OH)][Thr(3ξ)]C[Orn]-NH2; thioether N-14) | 0.01 µM |

Continued, values first:

| IC50 | SMILES |
| --- | --- |
| 0.01 µM | Cc1cccc(C[C@@H]2NC(=O)[C@H](CC(=O)O)NC(=O)[C@H](Cc3ccc(OCC(=O)O)cc3)NC(=O)[C@H](Cc3ccncc3)NC(=O)CSC[C@@H](C(=O)N[C@@H](CCN)C(N)=O)NC(=O)[C@H](CO)NC(=O)[C@H](C(C)(C)O)NC(=O)[C@H](CC3CCCCC3)NC(=O)[C@H](CCN)NC(=O)[C@@H](CC(C)C)NC(=O)[C@H](C)N(C)C(=O)[C@H](Cc3ccc(OCC(=O)O)cc3)NC(=O)[C@H](Cc3ccc(-c4ccccc4)cc3)NC(=O)[C@H](Cc3ccc(OCC(=O)O)cc3)NC2=O)c1 [Compound 2135] ({CH2CO}-[4Pal]Y(Carboxymethyl)D[Phe(3-Me)]Y(Carboxymethyl)[Bip]Y(Carboxymethyl)[NMeA][dL][Dab][Cha][Val(3-OH)]SC[Dab]-NH2; thioether N-14) |
| 0.01 µM | Cc1cccc(C[C@@H]2NC(=O)[C@H](CC(=O)O)NC(=O)[C@H](Cc3ccc(OCC(=O)O)cc3)NC(=O)[C@H](C(C)O)NC(=O)CSC[C@@H](C(=O)N[C@@H](CCN)C(N)=O)NC(=O)[C@H](C(C)O)NC(=O)[C@H](C(C)(C)O)NC(=O)[C@H](CC3CCCCC3)NC(=O)[C@H](CCN)NC(=O)[C@@H](CC(C)C)NC(=O)[C@H](C)N(C)C(=O)[C@H](Cc3ccc(OCC(=O)O)cc3)NC(=O)[C@H](Cc3ccc(-c4ccccc4)cc3)NC(=O)[C@H](Cc3ccc(C(=O)O)cc3)NC2=O)c1 (stereo partly drawn) [Compound 2148] ({CH2CO}-[Thr(3ξ)]Y(Carboxymethyl)D[Phe(3-Me)][Phe(4-COOH)][Bip]Y(Carboxymethyl)[NMeA][dL][Dab][Cha][Val(3-OH)][Thr(3ξ)]C[Dab]-NH2; thioether N-14) |
| 0.02 µM | Cc1cccc(C[C@@H]2NC(=O)[C@H](CC(=O)O)NC(=O)[C@H](Cc3ccc(OCC(=O)O)cc3)NC(=O)[C@H](C(C)O)NC(=O)CSC[C@@H](C(=O)N[C@@H](CCN)C(N)=O)NC(=O)[C@H](CO)NC(=O)[C@H](C(C)(C)O)NC(=O)[C@H](CC3CCCCC3)NC(=O)[C@H](CCN)NC(=O)[C@@H](CC(C)C)NC(=O)[C@H](C)N(C)C(=O)[C@H](Cc3ccc(OCC(=O)O)cc3)NC(=O)[C@H](Cc3ccc(-c4ccccc4)cc3)NC(=O)[C@H](Cc3ccc(OCC(=O)O)cc3)NC2=O)c1 (stereo partly drawn) [Compound 2149] ({CH2CO}-[Thr(3ξ)]Y(Carboxymethyl)D[Phe(3-Me)]Y(Carboxymethyl)[Bip]Y(Carboxymethyl)[NMeA][dL][Dab][Cha][Val(3-OH)]SC[Dab]-NH2; thioether N-14) |
| 0.01 µM | Cc1cccc(C[C@@H]2NC(=O)[C@H](CC(=O)O)NC(=O)[C@H](Cc3ccc(OCC(=O)O)cc3)NC(=O)[C@H](C(C)O)NC(=O)CSC[C@@H](C(=O)N[C@@H](CCN)C(N)=O)NC(=O)[C@H](CO)NC(=O)[C@H](C(C)(C)O)NC(=O)[C@H](CC3CCCCC3)NC(=O)[C@H](CCN)NC(=O)[C@@H](CC(C)C)NC(=O)[C@H](C)N(C)C(=O)[C@H](Cc3ccc(OCC(=O)O)cc3)NC(=O)[C@H](Cc3ccc(-c4ccccc4)cc3)NC(=O)[C@H](Cc3ccc(C(=O)O)cc3)NC2=O)c1 (stereo partly drawn) [Compound 2150] ({CH2CO}-[Thr(3ξ)]Y(Carboxymethyl)D[Phe(3-Me)][Phe(4-COOH)][Bip]Y(Carboxymethyl)[NMeA][dL][Dab][Cha][Val(3-OH)]SC[Dab]-NH2; thioether N-14) |
| 0.02 µM | Cc1cccc(C[C@@H]2NC(=O)[C@H](CC(=O)O)NC(=O)[C@H](Cc3ccc(C(=O)O)cc3)NC(=O)[C@H](C(C)O)NC(=O)CSC[C@@H](C(=O)N[C@@H](CCN)C(N)=O)NC(=O)[C@H](CO)NC(=O)[C@H](C(C)(C)O)NC(=O)[C@H](CC3CCCCC3)NC(=O)[C@H](CCN)NC(=O)[C@@H](CC(C)C)NC(=O)[C@H](C)N(C)C(=O)[C@H](Cc3ccc(OCC(=O)O)cc3)NC(=O)[C@H](Cc3ccc(-c4ccccc4)cc3)NC(=O)[C@H](Cc3ccc(OCC(=O)O)cc3)NC2=O)c1 (stereo partly drawn) [Compound 2151] ({CH2CO}-[Thr(3ξ)][Phe(4-COOH)]D[Phe(3-Me)]Y(Carboxymethyl)[Bip]Y(Carboxymethyl)[NMeA][dL][Dab][Cha][Val(3-OH)]SC[Dab]-NH2; thioether N-14) |
